{"source": "paper PMC12869404", "about": "(Virology, 2020)", "note": "Where no end group is shown, it is not given here.", "data": [{"test_system": "HIV-1 PSVs", "experiment": "TZMbl neutralization assay of immunized mouse sera", "details": "animals immunized with mimotopes alone; TZMbl and PBMC assays, Fig. 5", "values": [{"substance": "GYWSDYWGMTTH [4E10 PhD 12–7]", "neutralizing responses of sera": "detectable, low titer neutralizing responses"}, {"substance": "LPNWFNLSSNLM [4E10 PhD 12–11]", "neutralizing responses of sera": "detectable, low titer neutralizing responses"}]}, {"test_system": "glycan-specific, HIV-1 gp120 NAb, 2G12", "experiment": "M13 Binding ELISA, assay control NAb 2G12", "details": "control NAb 2G12 coated 1 μg/well; > 2.5E+9 = no binding", "units": {"Binding Titer (M13/ml) 2G12": "M13/ml"}, "values": [{"substance": "ALCLGPR (disulfide (positions not given here)) [Z13 PhD c7c-1]", "Binding Titer (M13/ml) 2G12": "> 2.5E+9"}, {"substance": "DKWASFD (disulfide (positions not given here)) [2F5 PhD c7c-2]", "Binding Titer (M13/ml) 2G12": "> 2.5E+9"}, {"substance": "DMRSIFHDNPFN [4E10 PhD 12–6]", "Binding Titer (M13/ml) 2G12": "> 2.5E+9"}, {"substance": "ERMLFEW (disulfide (positions not given here)) [4E10 PhD c7c-2]", "Binding Titer (M13/ml) 2G12": "> 2.5E+9"}, {"substance": "GPILANYSDITN [Z13 PhD 12–3]", "Binding Titer (M13/ml) 2G12": "> 2.5E+9"}, {"substance": "GYWSDYWGMTTH [4E10 PhD 12–7]", "Binding Titer (M13/ml) 2G12": "> 2.5E+9"}, {"substance": "HNSQNLDRWAII [2F5 PhD 12–1]", "Binding Titer (M13/ml) 2G12": "> 2.5E+9"}, {"substance": "LPNWFNLSSNLM [4E10 PhD 12–11]", "Binding Titer (M13/ml) 2G12": "> 2.5E+9"}, {"substance": "MELDKWA (disulfide (positions not given here)) [2F5 PhD c7c-1]", "Binding Titer (M13/ml) 2G12": "> 2.5E+9"}, {"substance": "NFWELSKYLHMA [4E10 PhD 12–9]", "Binding Titer (M13/ml) 2G12": "> 2.5E+9"}, {"substance": "NWFDGTTTLWHR [4E10 PhD 12–4]", "Binding Titer (M13/ml) 2G12": "> 2.5E+9"}, {"substance": "NWFDRSHTLFHS [4E10 PhD 12–3]", "Binding Titer (M13/ml) 2G12": "> 2.5E+9"}, {"substance": "NWFNLTQTLMPR [4E10 PhD 12–1]", "Binding Titer (M13/ml) 2G12": "> 2.5E+9"}, {"substance": "PFGFELW (disulfide (positions not given here)) [Z13 PhD c7c-2]", "Binding Titer (M13/ml) 2G12": "> 2.5E+9"}, {"substance": "QHWNYFDLSEQQ [Z13 PhD 12–2]", "Binding Titer (M13/ml) 2G12": "> 2.5E+9"}, {"substance": "QSYNWFDHTRWI [4E10 PhD 12–8]", "Binding Titer (M13/ml) 2G12": "> 2.5E+9"}, {"substance": "SEELDKWYNTLT [2F5 PhD 12–3]", "Binding Titer (M13/ml) 2G12": "> 2.5E+9"}, {"substance": "SEMDDKWAKMKI [2F5 PhD 12–2]", "Binding Titer (M13/ml) 2G12": "> 2.5E+9"}, {"substance": "SHTLNFLDLTST [Z13 PhD 12–1]", "Binding Titer (M13/ml) 2G12": "> 2.5E+9"}, {"substance": "SIFDWPR (disulfide (positions not given here)) [4E10 PhD c7c-1]", "Binding Titer (M13/ml) 2G12": "> 2.5E+9"}, {"substance": "SVSVGMKPSPRP [4E10 PhD 12–2]", "Binding Titer (M13/ml) 2G12": "> 2.5E+9"}, {"substance": "TLDIFRN (disulfide (positions not given here)) [4E10 PhD c7c-3]", "Binding Titer (M13/ml) 2G12": "> 2.5E+9"}, {"substance": "TNFFELTTKLHR [4E10 PhD 12–10]", "Binding Titer (M13/ml) 2G12": "> 2.5E+9"}, {"substance": "YFFDRSS (disulfide) [4E10 PhD c7c-4]", "Binding Titer (M13/ml) 2G12": "> 2.5E+9"}]}]}
